Test results as given in publication PMC7539012, “Hyperphosphorylated tau aggregation and cytotoxicity modulators screen identified prescription drugs linked to Alzheimer's disease and cognitive functions” (Scientific Reports, 2020).
Structures can show the parent of a compound that is named as a salt. Where a SMILES comes first, the peptide text is derived from it. [ ]: non-standard residue; d: D form. The star is where a group is joined. Sta = CC(C)C[C@H](N)[C@@H](O)CC(=O)O; Isovaleryl = CC(C)CC(=O)*

test system: T1, 1N4R p-tau; test: p-tau aggregation modulator screen of 1280-compound library (ThS fluorescence net change over 16 h); format: biochemical; parameters: key to PTAI>2SD: *: PTAI>2SD; details: not given;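 on ThS net change: 30 µM compound with 6 µM p-tau over 16 h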
T1 construct: made in house; host or cells: E. coli (PIMAX system)

Going from `Cc1cc(C(C)(C)C)cc(C)c1CC1=NCCN1` [Xylometazoline hydrochloride] to `CCN(CC)CC(=O)Nc1c(C)cccc1C` [Lidocaine hydrochloride], the ThS net change falls from 295 to 271.

Compared with `CC(=O)NCCCS(=O)(=O)O` [Acamprosate calcium], `CC[N+](CC)(CC(=O)Nc1c(C)cccc1C)Cc1ccccc1` [Denatonium benzoate] is higher in ThS net change: 422 for the first, 448 for the second.

Going from `CCN(CC)CCCC(C)Nc1c2ccc(Cl)cc2nc2ccc(OC)cc12.Cl.Cl.O.O` (stereo not shown) [Quinacrine dihydrochloride hydrate] to `CC(C)NC[C@@H](O)COc1cccc2ccccc12.Cl` [(R)-Propranolol hydrochloride], the ThS net change rises from 203 to 416.

Compared with `C[C@@H]1C[C@H]2[C@@H]3C[C@H](F)C4=CC(=O)C=C[C@]4(C)[C@@]3(F)[C@@H](O)C[C@]2(C)[C@@]1(O)C(=O)COC(=O)C(C)(C)C` [Flumethasone pivalate], `C[C@@H]1C[C@@H]([C@H](O)CC2CC(=O)NC(=O)C2)C(=O)[C@@H](C)C1` [Cycloheximide] is lower in ThS net change: 476 for the first, 442 for the second.

Compared with `O.O=P(O)(O)C(O)(Cc1cccnc1)P(=O)(O)O` [Risedronic acid monohydrate], `CC[C@]12CCCN3CCc4c(n(c5ccccc45)C(=O)C1)[C@@H]32` [Eburnamonine (-)] is lower in ThS net change: 455 for the first, 379 for the second.

same assay, conditions: 1280-compound library screen; ThS fluorescence net change over 16 h

Going from `OC(CCN1CCCCC1)(c1ccccc1)C1CC2C=CC1C2` (stereo not shown) [Biperiden hydrochloride] to `CCCC(C(=O)OCCN(CC)CC)(c1ccccc1)c1ccccc1` [Proadifen hydrochloride], the ThS net change rises from 380 to 390.

First: CC(C)NC[C@H](O)c1ccc(O)c(O)c1.Cl [(-)-Isoproterenol hydrochloride]
Second: CCNCC(O)c1cccc(O)c1 (stereo not shown) [Etilefrine hydrochloride]
The ThS net change of the first is lower: 400 for the first, 407 for the second.

Going from `CCCNC(C)C(=O)Nc1ccccc1C` (stereo not shown) [Prilocaine hydrochloride] to `CCCC(=O)Nc1ccc(OCC(O)CNC(C)C)c(C(C)=O)c1` (stereo not shown) [Acebutolol hydrochloride], the ThS net change rises from 378 to 381.

First: Cc1cccc(C)c1OCC(C)N (stereo not shown) [Mexiletine hydrochloride]
Second: Cc1cc2cc3c(C)cc(=O)oc3c(C)c2o1 [Trioxsalen]
The ThS net change of the first is lower: 381 for the first, 390 for the second.

Going from `O=C1NCCN1c1ncc([N+](=O)[O-])s1` [Niridazole] to `CC(=O)[C@H]1CC[C@H]2[C@@H]3C[C@H](C)C4=CC(=O)CC[C@]4(C)[C@H]3[C@@H](O)C[C@]12C` [Medrysone], the ThS net change falls from 399 to 388.

Compared with `CC(C)CC(=O)N[C@H](C(=O)N[C@H](C(=O)N[C@@H](CC(C)C)[C@@H](O)CC(=O)N[C@@H](C)C(=O)N[C@@H](CC(C)C)[C@@H](O)CC(=O)O)C(C)C)C(C)C` [Pepstatin A] (Isovaleryl-VV[Sta]A[Sta]-OH), `CC(=O)OCC(=O)[C@@]12OC(C)(C)O[C@@H]1C[C@H]1[C@@H]3C[C@H](F)C4=CC(=O)C=C[C@]4(C)[C@@]3(F)[C@@H](O)C[C@@]12C` [Fluocinonide] is lower in ThS net change: 389 for the first, 387 for the second.

`Cc1c(Cl)cccc1Nc1ccccc1C(=O)O` [Tolfenamic acid] was tested, and the ThS net change was 383.

same assay, conditions: 1280-compound library screen; […]

Going from `O.O=C1C(O)=C(O)C(=O)C(O)=C1O` [Tetrahydroxy-1,4-quinone hydrate] to `C=C(C)[C@@H]1[C@H]2OC(=O)[C@@H]1[C@]1(O)C[C@H]3O[C@]34C(=O)O[C@H]2[C@]14C` [Picrotoxinin], the ThS net change falls from 391 to 390.

First: CC1(C)S[C@@H]2[C@H](NC(=O)[C@H](C(=O)O)c3ccsc3)C(=O)N2[C@H]1C(=O)O [Ticarcillin sodium]
Second: C[C@]12CC[C@H](O)C[C@H]1CC[C@@H]1[C@@H]2CC[C@]2(C)[C@@H](C3=CC(=O)OC3)CC[C@]12O [Digitoxigenin]
The ThS net change of the first is higher: 407 for the first, 383 for the second.

Compared with `CC(=O)OCC(=O)NCCCOc1cccc(CN2CCCCC2)c1` [Roxatidine Acetate HCl], `CCN(CC)C(C)C(=O)c1ccccc1` (stereo not shown) [Amfepramone hydrochloride] is lower in ThS net change: 411 for the first, 388 for the second.

`O=P(O)(O)C(O)(Cn1ccnc1)P(=O)(O)O` [Zoledronic acid hydrate] showed a ThS net change of 398.

same assay, conditions: flag: p-tau aggregation inhibitor, ThS net change more than 2 SD from mean

In the case of `CN(C)[C@@H]1C(O)=C(C(N)=O)C(=O)[C@@]2(O)C(O)=C3C(=O)c4c(O)ccc(Cl)c4[C@@H](O)[C@H]3C[C@@H]12` [Demeclocycline hydrochloride], the “PTAI>2SD” value is reported as “*”.
In the case of `CN(C)c1ccc(O)c2c1C[C@H]1C[C@H]3[C@H](N(C)C)C(O)=C(C(N)=O)C(=O)[C@@]3(O)C(O)=C1C2=O` [Minocycline hydrochloride], the “PTAI>2SD” value is reported as “*”.

same assay, conditions: library screen, ThS fluorescence net change over 16 h with p-tau

Compared with `CN(C)[C@@H]1C(O)=C(C(N)=O)C(=O)[C@@]2(O)C(O)=C3C(=O)c4c(O)ccc(Cl)c4[C@@H](O)[C@H]3C[C@@H]12` [Demeclocycline hydrochloride], `CN(C)c1ccc(O)c2c1C[C@H]1C[C@H]3[C@H](N(C)C)C(O)=C(C(N)=O)C(=O)[C@@]3(O)C(O)=C1C2=O` [Minocycline hydrochloride] is higher in ThS net change: 117 for the first, 121 for the second.

Going from `O=c1[nH]c2ccccc2n1C1CCN(CCCC(c2ccc(F)cc2)c2ccc(F)cc2)CC1` [Pimozide] to `O=C1NCN(c2ccccc2)C12CCN(CCCC(c1ccc(F)cc1)c1ccc(F)cc1)CC2` [Fluspirilen], the ThS net change falls from 274 to 258.

same assay, conditions: p-tau aggregation modulator screen of 1280-compound library; ThS fluorescence net change

First: COc1ccc(CC2c3cc(OC)c(OC)cc3CC[N+]2(C)CCC(=O)OCCCCCOC(=O)CC[N+]2(C)CCc3cc(OC)c(OC)cc3C2Cc2ccc(OC)c(OC)c2)cc1OC (stereo not shown) [Atracurium besylate]
Second: CN1C[C@H](CNC(=O)OCc2ccccc2)C[C@@H]2c3cccc4c3c(cn4C)C[C@H]21 [Metergoline]
The ThS net change of the first is higher: 370 for the first, 349 for the second.

Going from `Cc1ncc(CO)c(CO)c1O` [Pyridoxine hydrochloride] to `NC(CO)C(=O)NNCc1ccc(O)c(O)c1O` (stereo not shown) [Benserazide hydrochloride], the ThS net change rises from 354 to 372.

Going from `Cn1cnc([N+](=O)[O-])c1Sc1ncnc2nc[nH]c12` [Azathioprine] to `COc1cnc(NS(=O)(=O)c2ccc(N)cc2)nc1` [Sulfameter], the ThS net change falls from 367 to 357.

First: CN1CCN(C(c2ccccc2)c2ccccc2)CC1.Cl [Cyclizine hydrochloride]
Second: Nc1ccc(S(=O)(=O)Nc2ccnn2-c2ccccc2)cc1 [Sulfaphenazole]
The ThS net change of the first is higher: 377 for the first, 334 for the second.

Going from `CC(=O)OC(C)C[N+](C)(C)C` (stereo not shown) [Methacholine chloride] to `COC(=O)C1=C(C)NC(C)=C(C(=O)OC(C)C)C1c1cccc2nonc12` (stereo not shown) [Isradipine], the ThS net change rises from 370 to 372.

First: CC(=O)OCC(=O)[C@@]1(O)[C@H](C)C[C@H]2[C@@H]3CCC4=CC(=O)C=C[C@]4(C)[C@@]3(F)[C@@H](O)C[C@@]21C [Dexamethasone acetate]
Second: CCC(=O)OCC(=O)[C@@]1(OC(=O)CC)[C@@H](C)C[C@H]2[C@@H]3CCC4=CC(=O)C=C[C@]4(C)[C@@]3(Cl)[C@@H](O)C[C@@]21C [Beclomethasone dipropionate]
The ThS net change of the first is lower: 343 for the first, 354 for the second.

First: CC1=C(/C=C/C(C)=C/C=C/C(C)=C/C(=O)O)C(C)(C)CCC1 [Retinoic acid]
Second: Cc1onc(-c2ccccc2)c1C(=O)N[C@@H]1C(=O)N2[C@@H]1SC(C)(C)[C@@H]2C(=O)[O-].[Na+] [Oxacillin sodium]
The ThS net change of the first is higher: 374 for the first, 373 for the second.

Compared with `CCc1nc(N)nc(N)c1-c1ccc(Cl)cc1` [Pyrimethamine], `CCCCN(CCCC)CCCOC(=O)c1ccc(N)cc1` [Butacaine] is higher in ThS net change: 354 for the first, 367 for the second.

Going from `CNC(=C[N+](=O)[O-])NCCSCc1csc(CN(C)C)n1` [Nizatidine] to `CC(C)(C)NCC(O)COc1cccc2c1CCC(=O)N2` (stereo not shown) [Carteolol hydrochloride], the ThS net change rises from 334 to 377.

Work on `CN(C)CCC[C@@]1(c2ccc(F)cc2)OCc2cc(C#N)ccc21` [Escitalopram oxalate] yielded a ThS net change of 374.

same assay, conditions: p-tau aggregation modulator screen of the compound library, ThS fluorescence net change

Compared with `CCN1CCC[C@H]1CNC(=O)c1c(OC)ccc(Br)c1OC.Cl` [Remoxipride Hydrochloride], `COc1cc2c(cc1OC)C(=O)C(CC1CCN(Cc3ccccc3)CC1)C2` (stereo not shown) [Donepezil hydrochloride] is lower in ThS net change: 460 for the first, 435 for the second.

First: C=CCOC(Cn1ccnc1)c1ccc(Cl)cc1Cl (stereo not shown) [Enilconazole]
Second: CCOC(=O)N1CCC(=C2c3ccc(Cl)cc3CCc3cccnc32)CC1 [Loratadine]
The ThS net change of the first is higher: 461 for the first, 450 for the second.

`Cc1cn([C@H]2C[C@H](N=[N+]=[N-])[C@@H](CO)O2)c(=O)[nH]c1=O` [Zidovudine, AZT] and `O=c1[nH]c(=O)n(C2CCCO2)cc1F` (stereo not shown) [Tegafur] are the same in ThS net change: 448 for the first, 448 for the second.

Going from `CC1=C(C(=O)O)N2C(=O)[C@@H](NC(=O)[C@H](N)c3ccc(O)cc3)[C@H]2SC1` [Cefadroxil] to `CCOC(=O)[C@H](CCc1ccccc1)N[C@@H](C)C(=O)N1Cc2ccccc2C[C@H]1C(=O)O` [Quinapril HCl], the ThS net change rises from 413 to 417.

Going from `Cc1cc(-n2c(=O)[nH]c(=O)n(C)c2=O)ccc1Oc1ccc(SC(F)(F)F)cc1` [Toltrazuril] to `C[C@@H](O[C@H]1OCCN(Cc2n[nH]c(=O)[nH]2)[C@H]1c1ccc(F)cc1)c1cc(C(F)(F)F)cc(C(F)(F)F)c1` [Aprepitant], the ThS net change falls from 511 to 451.

Going from `CNC1(C)C2CCC(C2)C1(C)C` (stereo not shown) [Mecamylamine hydrochloride] to `CC(C)(C)NC[C@H](O)COc1ccccc1C1CCCC1` [Penbutolol sulfate], the ThS net change rises from 418 to 457.

Going from `Cc1[nH]cnc1CN1CCc2c(c3ccccc3n2C)C1=O` [Alosetron hydrochloride] to `CC(C)Cn1cnc2c(N)nc3ccccc3c21` [Imiquimod], the ThS net change rises from 429 to 439.

Going from `CCCCC1C(=O)N(c2ccccc2)N(c2ccccc2)C1=O` [Phenylbutazone] to `Cc1c(O)cccc1C(=O)N[C@@H](CSc1ccccc1)[C@H](O)CN1C[C@H]2CCCC[C@H]2C[C@H]1C(=O)NC(C)(C)C` [Nelfinavir mesylate], the ThS net change rises from 413 to 563.

First: CCCc1nc(C)c2c(=O)[nH]c(-c3cc(S(=O)(=O)N4CCN(CC)CC4)ccc3OCC)nn12 [Vardenafil]
Second: COc1cc([C@@H]2c3cc4c(cc3[C@@H](O[C@@H]3O[C@@H]5CO[C@@H](C)O[C@H]5[C@H](O)[C@H]3O)[C@H]3COC(=O)[C@H]23)OCO4)cc(OC)c1O [Etoposide]
The ThS net change of the first is higher: 414 for the first, 413 for the second.
